Reference: patent publication US6506799B1, “Methods of treating cardiovascular diseases, dyslipidemia, dyslipoproteinemia, and hypertension with ether compounds” (Esperion Therapeutics, Inc., priority 1999, dated 2003)

Assays:
[1] = tested on: chow fed male Sprague-Dawley rats; assay: Serum lipids, apolipoproteins and weight gain in chow fed male Sprague-Dawley rats after seven days of treatment; format: in vivo, rat; conditions: 100 mg/kg/day oral gavage, 7 days; normalized against vehicle control
Experimental: Illustrative compounds of the invention were administered daily at a dose of 100 mg/kg to chow fed male Sprague-Dawley rats for seven days in the morning by oral gavage in 1.5% carboxymethylcellulose/0.2% Tween-20 (dosing vehicle). Animals were weighed daily. Animals were allowed free access to rodent chow and water throughout the study. After the seventh dose, animals were sacrificed in the evening and blood serum was assayed for lipoprotein cholesterol profiles, serum triglycerides, total cholesterol VLDL, LDL, and HDL cholesterol, and the ratio of HDL cholesterol to that of VLDL plus LDL cholesterol, apolipoproteins A-I, C-II, C-III, and E by immunoelectrophoresis, and percent weight gain.
The five compounds were tested in two separate experiments. In each experiment, the experimental data were normalized against a control group of rats which received the dosing vehicle alone.

female obese Zucker rats = assay: Experiment A: serum lipids, glucose, non-esterified fatty acids and weight gain in obese female Zucker rats after seven days; format: in vivo, rat; conditions: 120 mg/kg
Experimental: Dosing vehicle, Compound A (86 mg/kg of body weight) or troglitazone (120 mg/kg of body weight) was administered to eight week old female obese Zucker rats daily for seven days in the morning by oral gavage in 1.5% carboxymethylcellulose/0.2% Tween-20. Troglitazone was obtained commercially. Finely crushed tablets were suspended in vehicle for dosing. Orbital blood samples were obtained following a six-hour fast prior to the initial dose and also following the seventh dose.
Blood serum was assayed for total cholesterol and triglycerides (FIG. 5), lipoprotein cholesterol profiles (FIG. 6), VLDL plus LDL cholesterol combined (also referred to as apo B containing lipoprotein cholesterol or non-HDL cholesterol), HDL cholesterol, and the ratio of HDL cholesterol to that of VLDL plus LDL cholesterol (FIG. 7), serum glucose, and non-esterified fatty acids (FIG. 8), and percent weight gain (FIG. 9). […] In particular, Compound A caused a marked elevation in HDL cholesterol after one week of treatment. Using the serum total cholesterol values (FIG. 5A) and the lipoprotein cholesterol distribution (FIG. 6), the amount of cholesterol associated with non-HDL (i.e., VLDL plus LDL) and HDL were determined (FIG. 7). […] In contrast, troglitazone reduced non-HDL and HDL cholesterol by 67% and 4%, respectively.

[2] = tested on: chow fed obese female Zucker rats; assay: Experiments B, C, D, E: serum lipids, glucose, insulin, body and liver weight in obese female Zucker rats, 14 days; format: in vivo, rat; conditions: for Body Weight Gain (% of Pretreatment) / HDL-Cholesterol (% of Pretreatment) / Non HDL-Cholesterol (% of Pretreatment) / Triglycerides (% of Pretreatment): 14 days
Experimental: In a number of different experiments, illustrative compounds of the invention and troglitazone were administered daily at various doses to 10-week old chow fed obese female Zucker rats for 14 days in the morning by oral gavage in 1.5% carboxymethylcellulose/0.2% Tween-20 (dosing vehicle). Animals were weighed daily. Animals were allowed free access to rodent chow and water throughout the study. Blood glucose was determined after a 6-hour fast in the afternoon without anesthesia from a tail vein. Serum was also prepared from a blood sample subsequently obtained from the orbital venous plexus (with O2/CO2 anesthesia) prior to and after one week treatment and used lipid and insulin determinations. At two weeks, blood glucose was again determined after a 6-hour fast without anesthesia from a tail vein. Soon thereafter, animals were sacrificed by CO2 inhalation in the evening and cardiac blood serum was collected and assessed for various lipids and insulin. Body weight was determined daily prior to dosing and at the time of euthanasia.

primary rat hepatocytes = assay: Synthesis of non-saponified and saponified lipids (14C-acetate incorporation) in hepatocytes; format: cell-based; conditions: 100 μM; 14C-acetate 2 hr; vs no compound control
Experimental: A male Sprague-Dawley rat was anesthetized by administration of sodium pentobarbitol by intraparitoneal injection at 50 mg/kg. In situ perfusion of the liver was performed as follows. […] To digest the liver, DSC solution (6.7 mM KCl, 143 mM NaCl, 9.2 mM Na HEPES, 5 mM CaCl2-2H2O, 1.7 mM Fructose, 0.029 mM Phenol red, 0.2% BSA, 100 U/ml collagenase Type I, 93 U/ml Hyaluronidase, 160 BAEE/ml trypsin inhibitor, pH 7.5) was perfused through the liver at a flow rate of 30 ml/min for 6 minutes at a temperature of 37° C. After digestion, cells were dispersed in a solution of DMEM-(DMEM containing 2 mM GlutMax-1, 0.2% BSA, 5% FBS, 12 nM insulin, 1.2 μM hydrocortisone) to stop the digestion process. The crude cell suspension was filtered through three layers of stainless steel mesh with pore sizes of 250, 106, and 75 μm respectively. Filtered cells were centrifuged at 50×g for two minutes and the supernatant discarded. The resulting cell pellet was resuspended in DMEM and centrifuged again. This final cell pellet was resuspended in DMEM+HS solution (DMEM containing 2 mM GlutMax-1, 20 nM delta-aminolevulinic acid, 17.4 mM MEM non-essential amino acids, 20% FBS, 12 nM insulin, 1.2 µM hydrocortisone) and plated to form monolayer cultures at a density of 100×10^3 cells/cm^2 on collagen coated culture dishes. Four hours after initial plating, media was changed to DMEM+(DMEM containing 2 mM GlutMax-1, 20 nM delta-aminolevulinic acid, 17.4 mM MEM non-essential amino acids, 10% FBS, 12 nM insulin, 1.2 μM hydrocortisone) and remained on cells overnight.
To test the effect of illustrative compounds of the invention on synthesis rates of non-saponified and saponified lipids, the monolayer cultures were exposed to 1 μM of lovastatin or 100 μM Compound A, B, D, E or F in DMEM+ containing 1 μCi/ml ^14C-acetate. Control cells were exposed to the same media lacking lovastatin or the test compounds. All cells were exposed to 0.1% DMSO. Metabolic labeling with ^14C-acetate continued for 2 hr at 37° C. After labeling, cells were washed twice with 1 ml of PBS followed by lysing in 1 ml of deionized water. Cells were scraped from the dishes, transferred to glass tubes and sonicated. 2.5 ml of 2:1 chloroform/methanol mixture was added followed by 1.5 ml of Phosphate Buffered Saline (PBS). To correct for extraction efficiency in the upcoming extractions, 3000 dpm of ^3H-cholesterol was added to each tube. Tubes were shaken for 30 min. to extract lipids into the organic phase followed by centrifugation for 10 minutes at 1000×g to separate the organic and aqueous phases. The lower organic phase containing total lipids was removed and placed in a new tube. The organic solution was evaporated under N2. […]

## CC(C)(CCCCOCCCCC(C)(C)OP(=O)(OCc1ccccc1)OCc1ccccc1)OP(=O)(OCc1ccccc1)OCc1ccccc1 [Compound C, phosphoric acid dibenzyl ester 5-(5-(bis-benzyloxy-phosphoryloxy)-5-methyl-hexyloxy)-1,1-dimethyl-pentyl ester]
[1]
  HDL-Cholesterol (% change): +11.6 % change
  LDL-Cholesterol (% change): −4.0 % change
  Triglyceride (% change): +32.6 % change

## Cc1c(C)c2c(c(C)c1O)CCC(C)(COc1ccc(CC3SC(=O)NC3=O)cc1)O2 (stereo not drawn) [troglitazone, reference compound]
Female obese Zucker rats; one week
  reduction of HDL cholesterol: 4%
  reduction of non-HDL cholesterol: 67%
  reduction of non-esterified fatty acids: 65%
Female obese Zucker rats; seven days, vehicle 6.6%
  increase in weight gain: +11.6%
[2]; Experiment B, 120 mg/kg/day
  Body Weight Gain (% of Pretreatment): +21.7 % of Pretreatment
  HDL-Cholesterol (% of Pretreatment): +44.2 % of Pretreatment
  Non HDL-Cholesterol (% of Pretreatment): −44.0 % of Pretreatment
  Triglycerides (% of Pretreatment): −76.6 % of Pretreatment
[2]; Experiment C, 12 mg/kg/day
  Body Weight Gain (% of Pretreatment): +20.2 % of Pretreatment
  HDL-Cholesterol (% of Pretreatment): +1.9 % of Pretreatment
  Non HDL-Cholesterol (% of Pretreatment): −10.6 % of Pretreatment
  Triglycerides (% of Pretreatment): +10.7 % of Pretreatment
[2]; Experiment C, 40 mg/kg/day
  Body Weight Gain (% of Pretreatment): +21.2 % of Pretreatment
  HDL-Cholesterol (% of Pretreatment): +36.1 % of Pretreatment
  Non HDL-Cholesterol (% of Pretreatment): −50.5 % of Pretreatment
  Triglycerides (% of Pretreatment): −59.6 % of Pretreatment
[2]; Experiment C, 120 mg/kg dose
  HDL increase: 122%
[2]; Experiment C, 120 mg/kg/day
  Body Weight Gain (% of Pretreatment): +25.5 % of Pretreatment
  HDL-Cholesterol (% of Pretreatment): +122.4 % of Pretreatment
  Non HDL-Cholesterol (% of Pretreatment): −67.5 % of Pretreatment
  Triglycerides (% of Pretreatment): −79.2 % of Pretreatment
[2]; Experiment C, all doses, after two weeks, FIG. 16
  percent liver to body weight: reduced at all doses
[2]; Experiment D, 120 mg/kg/day
  Body Weight Gain (% of Pretreatment): +13.8 % of Pretreatment
  HDL-Cholesterol (% of Pretreatment): +41.3 % of Pretreatment
  Non HDL-Cholesterol (% of Pretreatment): −51.0 % of Pretreatment
  Triglycerides (% of Pretreatment): −65.9 % of Pretreatment
[2]; Experiment E, 120 mg/kg/day
  Body Weight Gain (% of Pretreatment): +14.4 % of Pretreatment
  HDL-Cholesterol (% of Pretreatment): +47.9 % of Pretreatment
  Non HDL-Cholesterol (% of Pretreatment): −67.4 % of Pretreatment
  Triglycerides (% of Pretreatment): −69.4 % of Pretreatment

## CC(C)(CCCCOCCCCC(C)(C)OP(=O)(O)O)OP(=O)([O-])[O-].[Na+].[Na+] [Compound B, phosphoric acid mono-(1,1-dimethyl-5-(5-methyl-5-phosphonooxy-hexyloxy)-pentyl)ester sodium salt]
[1]
  HDL-Cholesterol (% change): +40.7 % change
  LDL-Cholesterol (% change): +23.2 % change
  Triglyceride (% change): −31.1 % change
[2]; Experiment B, 100 mg/kg/day
  Body Weight Gain (% of Pretreatment): +12.0 % of Pretreatment
  HDL-Cholesterol (% of Pretreatment): −23.3 % of Pretreatment
  Non HDL-Cholesterol (% of Pretreatment): +257.1 % of Pretreatment
  Triglycerides (% of Pretreatment): +24.6 % of Pretreatment

## CC(C)(O)CCCCOCCCCC(C)(C)O [Compound F, 6-(5-hydroxy-5-methyl-hexyloxy)-2-methyl-hexan-2-ol]
Primary rat hepatocytes
  rates of saponified fatty acid synthesis: reduced the rates of saponified fatty acid synthesis

## CC(C)(CCCOCCCC(C)(C)OP(=O)(O)O)OP(=O)([O-])[O-].[Na+].[Na+] [Compound D, phosphoric acid mono-(1,1-dimethyl-4-(4-methyl-4-phosphonooxy-pentyloxy)-butyl)ester sodium salt]
[1]
  HDL-Cholesterol (% change): +13.3 % change
  LDL-Cholesterol (% change): −17.0 % change
  Triglyceride (% change): +28.0 % change

## CC(C)(CCCOCCCC(C)(C)OP(=O)(OCc1ccccc1)OCc1ccccc1)OP(=O)(OCc1ccccc1)OCc1ccccc1 [Compound E, phosphoric acid dibenzyl ester 4-(4-(bis-benzyloxy-phosphoryloxy)-4-methyl-pentyloxy)-1,1-dimethyl-butyl ester]
[1]
  HDL-Cholesterol (% change): +49.1 % change
  LDL-Cholesterol (% change): −41.0 % change
  Triglyceride (% change): −30.5 % change
Primary rat hepatocytes
  rates of saponified fatty acid synthesis: reduced the rates of saponified fatty acid synthesis
